Patent US5637582A, “Peripheral circulation improving agent” (priority 1992, dated 1997)
Where a name gives a salt, the structure may show the parent alone.

Columns and labels:
[1] = test system: vertebral artery; assay: Change of vertebral arterial blood flow in anesthetized dogs (Experimental Example 4); conditions: 100 μg/kg i.v.
Method: (§1) Each test compound was intravenously administered to adult dogs (one group consisting of 2 or 4 dogs) under anesthesia and artificial respiration at a dose of 100 μg/kg body weight. Femoral arterial blood flow, vertebral arterial blood flow and arterial blood pressure were measured 1, 3, 5, 10, 20 and 30 minutes after the administration. The femoral arterial blood flow and vertebral arterial blood flow were measured with an electromagnetic blood flowmeter (manufactured by Nihon Koden, MFV-2100, trade name) through a flow probe attached to the femoral artery or vertebral artery. The arterial blood pressure was measured with a pressure transducer (manufactured by Millar, MICRO-TIP, Model SPC-350) through a catheter attached to the brachial artery.
(§2) Changes of the femoral arterial blood flow, vertebral arterial blood flow and arterial blood pressure were estimated by comparing the values measured before and after the administration of the test compound.

[2] = test system: arterial blood pressure; assay: Change of arterial blood pressure in anesthetized dogs (Experimental Example 4); conditions: 100 μg/kg i.v.
Method: as §1, §2

[3] = test system: femoral artery; assay: Change of femoral arterial blood flow in anesthetized dogs (Experimental Example 4); assay type: in vivo, dog; conditions: 100 μg/kg i.v.; for Increase in femoral arterial blood flow: 10 minutes after the administration; for AUC60 of the femoral arterial blood flow: 60 minutes after administration
Method: as §1, §2

[4] = test system: femoral artery; assay: Maximum increase in femoral arterial blood flow in anesthetized dogs, cumulative i.v. dosing (Experimental Example 3); assay type: in vivo, dog; conditions: maximum during 60 min
Method: Adult dogs (one group consisting of 5 dogs) were intravenously given the test compound under anesthesia and artificial respiration successively at intervals of 60 minutes so that the dose can be 10, 30, 100, 300 and 1000 μg/kg body weight, and the blood flow of femoral artery was measured with a time course. […] An increase in the femoral arterial blood flow was calculated by subtracting the blood flow before the administration of the first dose of test compound as the standard value (the base line) from that of maximum during an interval of 60 minutes after each administration.

[5] = test system: femoral artery; assay: Increase in femoral arterial blood flow in anesthetized dogs, cumulative i.v. dosing (Experimental Example 1); assay type: in vivo, dog; conditions: 60 min after administration
Method: Adult dogs (one group consisting of a dog) were intravenously given the test compound under anesthesia and artificial respiration successively at intervals of 60 minutes so that the dose can be 10, 30, 100 and 300 μg/kg body weight, and the blood flow of femoral artery was measured with a time course. […] An increase in the femoral arterial blood flow was calculated by subtracting the blood flow before the administration of the first dose of test compound as the standard value (the base line) from that 60 minutes after each administration.

[6] = test system: hind leg edema; assay: Hind leg frostbite model: model of Raynaud's disease (Experimental Example 7); assay type: in vivo, male SD rat; conditions: for % Inhibition of edema / Edema: 30 mg/kg, orally twice a day for 6 days; for edema inhibition activity: rat hind leg frostbite model, in words
Method: (Hind leg frostbite model: Model of Raynaud's disease)
Left hind leg of male SD rat (one group: 3 to 5 rats) was dipped in dry ice-ethanol for 2 seconds, and after 30 minutes, 30 mg/kg of a test compound dissolved in pure water was administered to the rat and then orally administered twice a day for 6 days continuously. At the final day of the experiment, volumes of both hind legs (below ankle joint) of the rat were measured by a water substitution method and an edema ratio was calculated from the following equation. Also, an inhibition ratio of the test compound administered group was obtained by comparing the edema ratio of the group in which the test compound was not administered. [formula]
The present model is disclosed, for example, in Hayashi et al, "Pharmacological Studies on Niceritrol (10), The Effects on Experimental Models of Peripherally Circulatory Insufficiency", Applied Pharmacology, 24 (6): 859-864 (1982), noting particularly the section "2. Effect on an experimental frostbite model" on page 860.

[7] = G and H: one minute after, in words

Compound | Vertebral Arterial Blood Flow change (side effects) ([1]; 1 min) | Vertebral Arterial Blood Flow change (side effects) ([1]; 3 min) | Vertebral Arterial Blood Flow change (side effects) ([1]; 5 min) | Vertebral Arterial Blood Flow change (side effects) ([1]; 10 min) | Vertebral Arterial Blood Flow change (side effects) ([1]; 20 min) | Vertebral Arterial Blood Flow change (side effects) ([1]; 30 min) | Arterial Blood Pressure change (side effects) ([2]; 1 min) | Arterial Blood Pressure change (side effects) ([2]; 3 min) | Arterial Blood Pressure change (side effects) ([2]; 5 min) | Arterial Blood Pressure change (side effects) ([2]; 10 min) | Arterial Blood Pressure change (side effects) ([2]; 20 min) | Arterial Blood Pressure change (side effects) ([2]; 30 min) | Femoral Arterial Blood Flow change ([3]; 3 min) | Femoral Arterial Blood Flow change ([3]; 5 min) | Increase in femoral arterial blood flow ([4]; 30 μg/kg i.v.) [mL/min] | Increase in femoral arterial blood flow ([4]; 100 μg/kg i.v.) [mL/min] | Increase in femoral arterial blood flow ([4]; 300 μg/kg i.v.) [mL/min] | Increase in femoral arterial blood flow ([5]; 30 μg/kg i.v.) [mL/min] | Increase in femoral arterial blood flow ([5]; 100 μg/kg i.v.) [mL/min] | Increase in femoral arterial blood flow ([5]; 300 μg/kg i.v.) [mL/min] | other results
CC(=O)O[C@H]1C(=O)N(CCN(C)C)c2ccc(C)cc2S[C@H]1c1ccc(C)cc1 [G, reference compound] | 26.5 Δ ml/min | 18.0 Δ ml/min | 11.5 Δ ml/min | 7.0 Δ ml/min | 3.5 Δ ml/min | 2.5 Δ ml/min | -11.0 ΔmmHg | -2.5 ΔmmHg | 1.5 ΔmmHg | 1.0 ΔmmHg | 1.0 ΔmmHg | 1.5 ΔmmHg | 24.0 Δ ml/min | 16.0 Δ ml/min | – | – | – | – | – | – | effect on vertebral arterial blood flow [1, 7]: remarkable changes; effect on arterial blood pressure [2, 7]: remarkable changes; Femoral Arterial Blood Flow change ([3]; 1 min): 30.0 Δ ml/min; Femoral Arterial Blood Flow change ([3]; 10 min): 9.5 Δ ml/min; Increase in femoral arterial blood flow ([3]; in words): substantially disappeared; Femoral Arterial Blood Flow change ([3]; 20 min): 7.5 Δ ml/min; Femoral Arterial Blood Flow change ([3]; 30 min): 5.0 Δ ml/min; AUC60 of the femoral arterial blood flow [3]: 475.3 mL
COc1ccc([C@@H]2Sc3ccccc3N(CCN(C)C)C(=O)[C@@H]2OC(C)=O)cc1 [H, reference compound] | 25.5 Δ ml/min | 18.0 Δ ml/min | 13.5 Δ ml/min | 7.5 Δ ml/min | 4.5 Δ ml/min | 2.0 Δ ml/min | -11.5 ΔmmHg | -4.5 ΔmmHg | -2.0 ΔmmHg | -1.0 ΔmmHg | 0.0 ΔmmHg | 1.0 ΔmmHg | 34.5 Δ ml/min | 22.5 Δ ml/min | – | – | – | – | – | – | Femoral Arterial Blood Flow change ([3]; 1 min): 38.5 Δ ml/min; Femoral Arterial Blood Flow change ([3]; 10 min): 8.0 Δ ml/min; Increase in femoral arterial blood flow ([3]; in words): substantially disappeared; Femoral Arterial Blood Flow change ([3]; 20 min): 1.0 Δ ml/min; Femoral Arterial Blood Flow change ([3]; 30 min): -1.5 Δ ml/min; AUC60 of the femoral arterial blood flow [3]: 300.5 mL
Cc1ccc([C@H]2Sc3cc(C)ccc3N(CCN(C)C)C(=O)[C@H]2O)cc1 [B] | – | – | – | – | – | – | – | – | – | – | – | – | – | – | 16.4 | 41.4 | 70.2 | 28 | 48 | 74 | Increase in femoral arterial blood flow ([4]; 10 μg/kg i.v.): 10.4 mL/min; Increase in femoral arterial blood flow ([4]; 1000 μg/kg i.v.): 79.2 mL/min; Increase in femoral arterial blood flow ([5]; 10 μg/kg i.v.): 22 mL/min
CNCCN1C(=O)[C@@H](OC(C)=O)[C@@H](c2ccc(C)cc2)Sc2cc(C)ccc21 [C] | – | – | – | – | – | – | – | – | – | – | – | – | – | – | 6.8 | 25.6 | 44.6 | 19 | 50 | 65 | Increase in femoral arterial blood flow ([4]; 1000 μg/kg i.v.): 49.0 mL/min; Increase in femoral arterial blood flow ([5]; 10 μg/kg i.v.): 6 mL/min
CNCCN1C(=O)[C@@H](O)[C@@H](c2ccc(C)cc2)Sc2cc(C)ccc21 [D] | – | – | – | – | – | – | – | – | – | – | – | – | – | – | – | – | – | – | 11 | 35 | –
COc1ccc([C@H]2Sc3ccccc3N(CCN(C)C)C(=O)[C@H]2OC(C)=O)cc1 [F] | -0.5 Δ ml/min | -1.0 Δ ml/min | -1.0 Δ ml/min | 0.0 Δ ml/min | 0.0 Δ ml/min | 0.5 Δ ml/min | -1.5 ΔmmHg | -0.5 ΔmmHg | 1.0 ΔmmHg | 1.5 ΔmmHg | 1.5 ΔmmHg | 2.5 ΔmmHg | 36.0 Δ ml/min | 48.0 Δ ml/min | 21.0 | 27.3 | 37.0 | 21 | 27 | 37 | Increase in femoral arterial blood flow ([4]; 10 μg/kg i.v.): 10.7 mL/min; Increase in femoral arterial blood flow ([5]; 10 μg/kg i.v.): 11 mL/min; Femoral Arterial Blood Flow change ([3]; 10 min): 63.5 Δ ml/min; Femoral Arterial Blood Flow change ([3]; 20 min): 64.5 Δ ml/min; Femoral Arterial Blood Flow change ([3]; 30 min): 54.5 Δ ml/min; AUC60 of the femoral arterial blood flow [3]: 2977.0 mL; femoral arterial blood flow increasing activity ([3]; even after 30 minutes, in words): excellent femoral arterial blood flow increasing activity
Clc1ccccc1CN1CCc2sccc2C1 [Compound K, ticlopidine] | – | – | – | – | – | – | – | – | – | – | – | – | – | – | – | – | – | – | – | – | % Inhibition of edema [6]: -9%; Edema [6]: 48 ± 2%; edema inhibition activity [6]: did not show any edema inhibition activity
CC(=O)Oc1ccccc1C(=O)O [Compound L, acetyl salicylic acid] | – | – | – | – | – | – | – | – | – | – | – | – | – | – | – | – | – | – | – | – | % Inhibition of edema [6]: -25%; Edema [6]: 55 ± 8%; edema inhibition activity [6]: did not show any edema inhibition activity
CC(=O)O[C@@H]1C(=O)N(CCN(C)C)c2ccc(CO)cc2S[C@@H]1c1ccc(C)cc1 [Compound E, (-)-cis-2-(4-methylphenyl)-3-acetoxy-5-[2-(dimethylamino)ethyl]-8-hydroxymethyl-2,3-dihydro-1,5-benzothiazepin-4(5H)-one oxalate] | – | – | – | – | – | – | – | – | – | – | – | – | – | – | 15.6 | 55.6 | 69.2 | 15 | 37 | 36 | Increase in femoral arterial blood flow ([4]; 1000 μg/kg i.v.): 68.6 mL/min
